Experimental findings from article PMC6934184, “Selective DNA-PKcs inhibition extends the therapeutic index of localized radiotherapy and chemotherapy” (The Journal of Clinical Investigation, 2019) are described below.

The target of the assay is T1, ACVR1 (ALK2) (Homo sapiens, UniProt Q04771).
T1 construct: purchased Thermo Fisher Scientific (Life Technologies) SelectScreen
The assay can be described thus: SelectScreen LanthaScreen. It is filed as binding. To be noted: read-out: % displacement. The gist of the method: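 SelectScreen broad panel; activity (Z'LYTE, Adapta) plus binding formats. ATP: Km app for CSF1R Z'LYTE; 10 for CAMK1 Adapta. Readout = % per kinase.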
Background: TR-FRET usually uses a lanthanide donor and a delayed reading to cut background.

T1 sequence (Q04771 21-509): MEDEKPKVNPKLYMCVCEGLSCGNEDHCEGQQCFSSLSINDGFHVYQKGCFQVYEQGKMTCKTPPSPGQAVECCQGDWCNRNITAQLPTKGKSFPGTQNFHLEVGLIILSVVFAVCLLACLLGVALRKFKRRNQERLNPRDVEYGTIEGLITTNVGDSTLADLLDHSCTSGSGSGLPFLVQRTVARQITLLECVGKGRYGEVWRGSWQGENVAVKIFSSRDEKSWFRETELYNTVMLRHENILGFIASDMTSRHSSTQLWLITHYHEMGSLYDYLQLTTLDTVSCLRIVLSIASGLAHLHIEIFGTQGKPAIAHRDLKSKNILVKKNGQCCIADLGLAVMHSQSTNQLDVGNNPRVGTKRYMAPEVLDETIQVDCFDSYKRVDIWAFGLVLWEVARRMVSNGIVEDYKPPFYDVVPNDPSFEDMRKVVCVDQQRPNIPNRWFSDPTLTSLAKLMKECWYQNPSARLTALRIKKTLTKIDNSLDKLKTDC

For the compound `CN(C(=O)CN1CCOCC1)c1ccc2sc3c(-c4cccc5c(=O)cc(N6CC7CCC(C6)O7)oc45)cccc3c2c1` [NU5455], the inhibition at 1 µM was 0.7%.
